# In patent US8883782B2, “Spiro-tetracyclic ring compounds as beta-secretase modulators and methods of use” (Amgen Inc., priority 2010, dated 2014):
# Experiments:
# [1] = target: Beta Secretase enzyme (BACE) (Homo sapiens, UniProt P56817); experiment: In vitro enzymatic BACE FRET (fluorescence resonance energy transfer) assay; type: biochemical; conditions: average IC50, enzyme assay; read-out: BACE 1 FRET assay
# How it was run: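 Enzyme activity was measured at pH 4.2 (0.05 M acetate, 10% DMSO final, 100 uM genapol) by cleavage of a 50 nM quenched fluorogenic peptide. After one hour, Tris was added to neutralise the pH and fluorescence was recorded.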
# [2] = test system: Aβ40 in conditioned medium of cells stably expressing Amyloid Precursor Protein (APP); experiment: In vitro BACE cell-based assay (Aβ40 in conditioned medium, sandwich ELISA); conditions: Homo sapiens, HEK293, average IC50; read-out: HEK cell assay
# How it was run: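 Conditioned medium from stably APP-expressing cells treated with compound dose series is assayed for Aβ40 by sandwich ELISA with time-resolved fluorescence detection. IC50 is calculated from percent inhibition of Aβ40 against compound concentration.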
# Chain of Beta Secretase enzyme (BACE) (P56817 46-501, species assumed): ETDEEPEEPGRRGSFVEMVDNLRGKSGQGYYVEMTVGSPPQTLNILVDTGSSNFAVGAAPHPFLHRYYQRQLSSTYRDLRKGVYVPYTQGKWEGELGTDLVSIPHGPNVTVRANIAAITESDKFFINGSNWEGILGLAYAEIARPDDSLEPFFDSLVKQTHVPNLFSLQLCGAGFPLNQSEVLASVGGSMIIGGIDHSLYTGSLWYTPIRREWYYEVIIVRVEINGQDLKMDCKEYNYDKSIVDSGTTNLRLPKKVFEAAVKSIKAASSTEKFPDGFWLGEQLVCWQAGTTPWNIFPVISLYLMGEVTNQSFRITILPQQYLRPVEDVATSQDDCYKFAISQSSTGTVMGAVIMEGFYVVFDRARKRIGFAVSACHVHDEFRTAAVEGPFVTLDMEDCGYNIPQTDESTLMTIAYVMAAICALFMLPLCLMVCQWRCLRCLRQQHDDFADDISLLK
Structure (SMILES),IC50 [1],IC50 [2]
"NC1=N[C@@]2(CO1)c1cc(-c3cccnc3F)ccc1Oc1c2cc(C2=CCOCC2)c(F)c1F [Example 1011, (4S)-2′-(3,6-dihydro-2H-pyran-4-yl)-3′,4′-difluoro-7′-(2-fluoro-3-pyridinyl)spiro[1,3-oxazole-4,9′-xanthen]-2-amine]",0.5 nM,17 nM
"NC1=N[C@]2(CO1)c1cc(-c3cccnc3)ccc1Oc1c2cc(-c2ccnc(F)c2)c(F)c1F [Example 1012, (4R)-3′,4′-difluoro-2′-(2-fluoro-4-pyridinyl)-7′-(3-pyridinyl)spiro[1,3-oxazole-4,9′-xanthen]-2-amine]",59.7 nM,1850 nM
"NC1=N[C@@]2(CO1)c1cc(-c3cccnc3)ccc1Oc1c2cc(-c2ccnc(F)c2)c(F)c1F [Example 1013, (4S)-3′,4′-difluoro-2′-(2-fluoro-4-pyridinyl)-7′-(3-pyridinyl)spiro[1,3-oxazole-4,9′-xanthen]-2-amine]",2.4 nM,100 nM
"C[C@@](C#Cc1cnc2c(c1)[C@]1(COC(N)=N1)c1cc(-c3cccnc3F)ccc1O2)(CO)CCl [Example 1015, (2R)-4-((5S)-2′-amino-7-(2-fluoro-3-pyridinyl)spiro[chromeno[2,3-b]pyridine-5,4′-[1,3]oxazol]-3-yl)-2-(chloromethyl)-2-methyl-3-butyn-1-ol]",1 nM,9 nM
"NC1=N[C@@]2(CO1)c1cc(I)ccc1Oc1ncc(Br)cc12 [Example 1016, (5S)-3-bromo-7-iodospiro[chromeno[2,3-b]pyridine-5,4′-[1,3]oxazol]-2′-amine]",0.7 nM,12 nM
"NC1=N[C@]2(CO1)c1cc(I)ccc1Oc1ncc(Br)cc12 [Example 1017, (5R)-3-bromo-7-iodospiro[chromeno[2,3-b]pyridine-5,4′-[1,3]oxazol]-2′-amine]",27600 nM,886 nM
"Cc1ccn(-c2cnc3c(c2)[C@]2(COC(N)=N2)c2cc(-c4cccnc4F)ccc2O3)n1 [Example 1021, (5S)-7-(2-fluoro-3-pyridinyl)-3-(3-methyl-1H-pyrazol-1-yl)spiro[chromeno[2,3-b]pyridine-5,4′-[1,3]oxazol]-2′-amine]",3.5 nM,119 nM
"NC1=N[C@@]2(CS1)c1cc(-c3c(F)ccnc3F)ccc1Oc1cnc(-c3ccnc(F)c3)cc12 [Example 1023, (5S)-7-(2,4-difluoro-3-pyridinyl)-3-(2-fluoro-4-pyridinyl)spiro[chromeno[2,3-c]pyridine-5,4′-[1,3]thiazol]-2′-amine]",0.4 nM,18 nM
"NC1=N[C@@]2(CS1)c1cc(-c3cccnc3)ccc1Oc1c2cc(-c2ccnc(F)c2)nc1F [Example 1030, (5S)-1-fluoro-3-(2-fluoro-4-pyridinyl)-7-(3-pyridinyl)spiro[chromeno[2,3-c]pyridine-5,4′-[1,3]thiazol]-2′-amine]",0.2 nM,5 nM
"CC1(C)CC(c2cc3c(c(F)n2)Oc2ccc(-c4cccnc4F)cc2[C@@]32CSC(N)=N2)=CCO1 [Example 1034, (5S)-3-(2,2-dimethyl-3,6-dihydro-2H-pyran-4-yl)-1-fluoro-7-(2-fluoro-3-pyridinyl)spiro[chromeno[2,3-c]pyridine-5,4′-[1,3]thiazol]-2′-amine]",0.7 nM,5 nM
"NC1=N[C@@]2(CO1)c1cc(-c3cncnc3)c(F)cc1Oc1c(F)cc(C3=CCOCC3)cc12 [Example 1038, (4S)-7′-(3,6-dihydro-2H-pyran-4-yl)-3′,5′-difluoro-2′-(5-pyrimidinyl)spiro[1,3-oxazole-4,9′-xanthen]-2-amine]",0.4 nM,10 nM
"NC1=N[C@@]2(CO1)c1cc(-c3cncnc3)c(F)cc1Oc1c(F)cc(C3=CCCOC3)cc12 [Example 1039, (4S)-7′-(5,6-dihydro-2H-pyran-3-yl)-3′,5′-difluoro-2′-(5-pyrimidinyl)spiro[1,3-oxazole-4,9′-xanthen]-2-amine]",0.4 nM,8 nM
"NC1=N[C@@]2(CO1)c1cc(-c3cncnc3)c(F)cc1Oc1c(F)cc(C3CCOCC3)cc12 [Example 1040, (4S)-3′,5′-difluoro-2′-(5-pyrimidinyl)-7′-(tetrahydro-2H-pyran-4-yl)spiro[1,3-oxazole-4,9′-xanthen]-2-amine]",1.5 nM,30 nM
"NC1=N[C@@]2(CO1)c1cc(C3=CCOCC3)cc(F)c1Oc1ccc(-c3cncnc3)c(F)c12 [Example 1041, (4S)-7′-(3,6-dihydro-2H-pyran-4-yl)-1′,5′-difluoro-2′-(5-pyrimidinyl)spiro[1,3-oxazole-4,9′-xanthen]-2-amine]",3590 nM,≥ 10000 nM
"NC1=N[C@]2(CO1)c1cc(C3=CCOCC3)cc(F)c1Oc1ccc(-c3cncnc3)c(F)c12 [Example 1042, (4R)-7′-(3,6-dihydro-2H-pyran-4-yl)-1′,5′-difluoro-2′-(5-pyrimidinyl)spiro[1,3-oxazole-4,9′-xanthen]-2-amine]",13.5 nM,117 nM
"NC1=N[C@@]2(CO1)c1cc(-c3cccnc3F)ccc1Oc1c(F)cc(OCCF)cc12 [Example 1043, (4S)-4′-fluoro-2′-(2-fluoroethoxy)-7′-(2-fluoro-3-pyridinyl)spiro[1,3-oxazole-4,9′-xanthen]-2-amine]",1 nM,57 nM

# Continued by falling IC50 [1], values first:
IC50 [1],IC50 [2],Structure (SMILES)
577 nM,563 nM,"NC1=N[C@@]2(CO1)c1cc(-c3cccnc3F)ccc1Oc1ncc(Br)cc12 [Example 1018, (5S)-3-bromo-7-(2-fluoro-3-pyridinyl)spiro[chromeno[2,3-b]pyridine-5,4′-[1,3]oxazol]-2′-amine]"
21.2 nM,209 nM,"NC1=N[C@]2(CO1)c1cc(C3=CCOCC3)cc(F)c1Oc1ccc(-c3cccnc3)c(F)c12 [Example 1046, (4R)-7′-(3,6-dihydro-2H-pyran-4-yl)-1′,5′-difluoro-2′-(3-pyridinyl)spiro[1,3-oxazole-4,9′-xanthen]-2-amine]"
16.5 nM,851 nM,"Cc1ccnn1-c1cnc2c(c1)[C@]1(COC(N)=N1)c1cc(-c3cccnc3F)ccc1O2 [Example 1020, (5S)-7-(2-fluoro-3-pyridinyl)-3-(5-methyl-1H-pyrazol-1-yl)spiro[chromeno[2,3-b]pyridine-5,4′-[1,3]oxazol]-2′-amine]"
7.2 nM,106 nM,"Cc1ccn(-c2cnc3c(c2)[C@]2(COC(N)=N2)c2cc(-c4cccnc4)ccc2O3)n1 [Example 1022, (5S)-3-(3-methyl-1H-pyrazol-1-yl)-7-(3-pyridinyl)spiro[chromeno[2,3-b]pyridine-5,4′-[1,3]oxazol]-2′-amine]"
6.6 nM,1440 nM,"NC1=N[C@@]2(CS1)c1cc(-c3cccnc3F)ccc1Oc1c2cc(Cl)nc1F [Example 1024, (5S)-3-chloro-1-fluoro-7-(2-fluoro-3-pyridinyl)spiro[chromeno[2,3-c]pyridine-5,4′-[1,3]thiazol]-2′-amine]"
2 nM,120 nM,"CC1(C)CC(c2cc3c(c(F)n2)Oc2ccc(-c4cccnc4F)cc2[C@]32CSC(N)=N2)=CCO1 [Example 1036, (5R)-3-(2,2-dimethyl-3,6-dihydro-2H-pyran-4-yl)-1-fluoro-7-(2-fluoro-3-pyridinyl)spiro[chromeno[2,3-c]pyridine-5,4′-[1,3]thiazol]-2′-amine]"
1.3 nM,14 nM,"CC1(C)C=C(c2cc3c(c(F)n2)Oc2ccc(-c4cccnc4F)cc2[C@]32CSC(N)=N2)CCO1 [Example 1035, (5R)-3-(6,6-dimethyl-3,6-dihydro-2H-pyran-4-yl)-1-fluoro-7-(2-fluoro-3-pyridinyl)spiro[chromeno[2,3-c]pyridine-5,4′-[1,3]thiazol]-2′-amine]"
1 nM,141 nM,"NC1=N[C@@]2(CS1)c1cc(-c3cccnc3F)ccc1Oc1c2cc(-c2cccnc2F)nc1F [Example 1025, (5S)-1-fluoro-3,7-bis(2-fluoro-3-pyridinyl)spiro[chromeno[2,3-c]pyridine-5,4′-[1,3]thiazol]-2′-amine]"
0.6 nM,12 nM,"NC1=N[C@@]2(CO1)c1cc(-c3cnccc3F)ccc1Oc1c(F)cc(C3=CCCOC3)cc12 [Example 1045, (4S)-2′-(5,6-dihydro-2H-pyran-3-yl)-4′-fluoro-7′-(4-fluoro-3-pyridinyl)spiro[1,3-oxazole-4,9′-xanthen]-2-amine]"
0.5 nM,18 nM,"NC1=N[C@@]2(CO1)c1cc(-c3cnccc3F)ccc1Oc1c(F)cc(C3=CCOCC3)cc12 [Example 1044, (4S)-2′-(3,6-dihydro-2H-pyran-4-yl)-4′-fluoro-7′-(4-fluoro-3-pyridinyl)spiro[1,3-oxazole-4,9′-xanthen]-2-amine]"
0.4 nM,14 nM,"NC1=N[C@@]2(CS1)c1cc(-c3cccnc3F)ccc1Oc1c2cc(-c2ccncc2)nc1F [Example 1027, (5S)-1-fluoro-7-(2-fluoro-3-pyridinyl)-3-(4-pyridinyl)spiro[chromeno[2,3-c]pyridine-5,4′-[1,3]thiazol]-2′-amine]"
0.3 nM,3 nM,"NC1=N[C@@]2(CS1)c1cc(-c3cccnc3)ccc1Oc1c2cc(-c2cccnc2)nc1F [Example 1031, (5S)-1-fluoro-3,7-di-3-pyridinylspiro[chromeno[2,3-c]pyridine-5,4′-[1,3]thiazol]-2′-amine]"
0.2 nM,11 nM,"NC1=N[C@@]2(CS1)c1cc(-c3cccnc3F)ccc1Oc1c2cc(C2=CCCCO2)nc1F [Example 1026, (5S)-3-(3,4-dihydro-2H-pyran-6-yl)-1-fluoro-7-(2-fluoro-3-pyridinyl)spiro[chromeno[2,3-c]pyridine-5,4′-[1,3]thiazol]-2′-amine]"
0.2 nM,3 nM,"NC1=N[C@@]2(CS1)c1cc(-c3cccnc3F)ccc1Oc1c2cc(C2=CCCOC2)nc1F [Example 1028, (S)-3-(5,6-dihydro-2H-pyran-3-yl)-1-fluoro-7-(2-fluoropyridin-3-yl)-5′H-spiro[chromeno[2,3-c]pyridine-5,4′-thiazol]-2′-amine]"
